Measurements reported in patent US7579006B2, “Method of treating immune pathologies with low dose estrogen” (Oregon Health and Science University, priority 2000, dated 2009).
Like-named read-outs stand apart in the source and are kept apart here.

Key:
[1] = tested on: male SJL mice; assay: EAE induced with PLP 139-151 in male SJL mice; assay type: in vivo
[2] = tested on: CNS mononuclear cells; assay: Intracellular cytokine staining of CNS mononuclear cells; assay type: in vivo, mice; settings: 2.5 mg pellet
From the text: CNS mononuclear cells were isolated from perfused brain and spinal cord by percol gradient centrifugation as described in Bebo et al., J. Neurosci. Res. 52:420-429 (1998). The cells were stimulated with MOG-35-55 peptide for 24 hrs, the last 5 hrs in the presence of Brefeldin A. The cells were then stained with anti-CD4 cychrome labeled antibodies prior to fixation and permeabilization. The cells were subsequently stained with Vβ8.1/8.2 TCR-FITC and the indicated cytokine specific antibody coupled to PE and analyzed by three-color flow cytometry. For each experiment the cells were stained with isotype control antibodies to establish background staining and to set the quadrants prior to calculating the percent positive cells.
Intracellular staining of CNS mononuclear cells with anti-cytokine antibodies was also performed. Mononuclear cells were recovered from the brain and spinal cords of perfused mice at the peak of clinical disease. […] These cells were stained with anti-CD4 cychrome labeled antibodies and the frequency of cytokine producing Vβ8.2+ helper T cells was measured by staining with anti-Vβ8.2-FITC and PE-labeled cytokine specific antibodies.

[3] = tested on: B10.PL mice; assay: EAE induced with MBP Ac1-11 in B10.PL mice; assay type: in vivo; settings: for inhibition of EAE: B10.PL females
[4] = tested on: IL-10 KO mice; assay: EAE induced with MOG 35-55 in IL-10 KO mice (clinical, histopathology); assay type: in vivo; settings: 2.5 mg pellet
Experimental: Estrogen treatment. Sixty-day release pellets containing 2.5 mg of 17β-estradiol (E2) or vehicle were implanted subcutaneously (s.c) in the scapular region behind the neck using a 12-gauge trochar as described by the manufacturer (Innovative Research of America, Sarasota, Fla.). The mice were implanted one week prior to immunization with MOG 35-55. The concentration of E2 expected in the serum is between 1,500-2,000 pg/ml, which is approximately 5 times less than the levels found during pregnancy.
Induction of EAE. C57BL/6 and cytokine deficient mice were inoculated s.c in the flanks with 0.2 ml of an emulsion containing 200 μg of MOG 35-55 in saline and an equal volume of complete Freund's Adjuvant (CFA) containing 400 μg of Mycobacterium tuberculosis H37RA (Difco Laboratories, Detroit, Mich.). Disease induction required i.v. administration of pertussis toxin on the day of immunization (25 ng/mouse) and 2 days later (67 ng/mouse). The mice were assessed daily for clinical signs of EAE according to the 7 point scale described in Example I.
Histopathology. Histopathologic assessment of spinal column section was performed essentially as described in Example I, except that sections were stained with either luxol fast blue-periodic acid schiff-hematoxylin or silver nitrate prior to analysis.
Statistical analysis. Significant differences in incidence and mortality between untreated and E2 treated mice were assessed by Chi-square analysis. Difference in onset was determined using the two-tailed Student t test. Differences in peak score and cumulative disease index (CDI) were assessed by the Mann-Whitney test. Statistical significance of the frequency of cytokine secreting cells was analyzed using Student's t test for comparisons of two means. Differences in the expression of chemokine and cytokine mRNA were also determined using the Student t test. Values of p<0.05 were considered significant.

[5] = tested on: spinal cord mRNA; assay: RNAse protection assay of spinal cords of wildtype and cytokine knockout mice with EAE; assay type: in vivo
Experimental: RNAse protection assay. Chemokine, chemokine receptor and cytokine mRNAs were detected by RPA essentially as described in Example III, except that analysis was performed on 20 μg total RNA.
Estrogen treatment reduces chemokine and chemokine receptor mRNA expression in the CNS. The egress of inflammatory cells into the CNS is a critical first step in the development of EAE. Chemokines are low molecular weight chemotactic molecules that are thought to play an important role in the migration and retention of immunocompetent cells in the CNS. The influence of E2 treatment on chemokine and chemokine receptor mRNA in the spinal cords of WT and cytokine deficient mice was measured using the RNAse protection assay (RPA). Total RNA was purified from spinal cords collected from mice at the peak of EAE (day 12-16 post-immunization) and chemokine/chemokine receptor specific mRNA was detected using radiolabeled riboprobes. mRNAs coding for many of the chemokine and receptor family members were detectable in the spinal cords of WT C57BL/6 mice with EAE (FIG. 18). RANTES and IP-10 were expressed at the highest levels, followed by MIP-1α, MIP-2 and MCP-1. The levels of TCA-3 mRNA were below the limits of detection for this assay. […]
The expression of cytokine mRNA in the spinal cords of mice at the peak of EAE (day 12-16 post-immunization) was measured by RPA analysis. […]

[6] = tested on: splenic T cells; assay: Splenic T cell proliferation and cytokine responses of treated Tg mice with EAE; assay type: in vivo; settings: 0.36 mg pellet, average
Experimental: Proliferation assay. Spleens (SPL) were removed surgically, and single cell suspensions were prepared. Proliferative responses of T cells were determined in 96-well microtiter plates by incubating 4×10^5 spleen cells plus antigen at an optimal concentration of 20 μg/well. Cultures were incubated for 72 hr at 37° C. and 7% CO2, the last 18 hr in the presence of 0.5 μCi ^3H-thymidine. Cells were harvested onto glass fiber filters, and thymidine uptake was determined by liquid scintillation. Mean cpm±SEM were calculated from triplicate wells. The stimulation index (SI) was obtained by dividing cpm from antigen-stimulated wells by cpm from wells with no antigen. SI in cultures stimulated with GST alone was subtracted from the SI induced with GST-BV8S2 protein.
Proliferation assay. Proliferation responses of splenic T cells were determined essentially as described in Example II, except that antigen was used at an optimal concentration of 50 μg/ml.

[7] = cited from earlier work

For `C[C@]12CC[C@@H]3c4ccc(O)cc4CC[C@H]3[C@@H]1CC[C@@H]2O` [17β-estradiol], the CDI ([1]; 0.36 mg/pellet) was 6.4 ± 5.1, the Incidence ([1]; 0.36 mg/pellet) was 3/4 and the “Incidence (%)” value ([1]; 0.36 mg/pellet) was 75%. The Onset ([1]; 0.36 mg/pellet) was 15.3 ± 3.2 days, the “Peak (disease score)” value ([1]; 0.36 mg/pellet) was 2.1 ± 2.4 and the Incidence ([1]; 2.5 mg/pellet) was 0/4. The “Incidence (%)” value ([1]; 2.5 mg/pellet) was 0%, the “frequency and staining intensity of TNF-α and IFN-γ producing CD4+ T cells in the CNS” value ([2]; p<0.0001) was “dramatic reduction” and the “total number of mononuclear cells recovered from perfused CNS, untreated relative to E2 treated mice” value ([2]; peak of clinical disease) was 4-5 times higher. For the same compound, the “pro-inflammatory cytokine producing CD4+ Vβ8.2+ T cells in CNS” value ([2]; untreated 29,000 cells/mouse) was 390 cells/mouse, the CDT ([3]; 0.18 mg/pellet (diestrus)) was 5.8 ± 2.9 and the Incidence ([3]; 0.18 mg/pellet (diestrus)) was 3/6. The “Incidence (%)” value ([3]; 0.18 mg/pellet (diestrus)) was 50%, the Onset ([3]; 0.18 mg/pellet (diestrus)) was 25.7 ± 1.2 days and the “Peak (disease score)” value ([3]; 0.18 mg/pellet (diestrus)) was 1.7 ± 0.92. The CDT ([3]; 0.36 mg/pellet (estrus)) was 13.5 ± 6.2, the Incidence ([3]; 0.36 mg/pellet (estrus)) was 15/26 and the “Incidence (%)” value ([3]; 0.36 mg/pellet (estrus)) was 58%. The Onset ([3]; 0.36 mg/pellet (estrus)) was 26.5 ± 1.3 days, the “Peak (disease score)” value ([3]; 0.36 mg/pellet (estrus)) was 2.61 ± 0.60 and the CDT ([3]; 2.50 mg/pellet (pregnancy)) was 0 ± 0. The Incidence ([3]; 2.50 mg/pellet (pregnancy)) was 0/15, the “Incidence (%)” value ([3]; 2.50 mg/pellet (pregnancy)) was 0% and the Onset ([3]; 2.50 mg/pellet (pregnancy)) was 0 ± 0 days. The “Peak (disease score)” value ([3]; 2.50 mg/pellet (pregnancy)) was 0 ± 0, the CDT ([3]; 15.0 mg/pellet (high)) was 1.4 ± 3.8 and the Incidence ([3]; 15.0 mg/pellet (high)) was 2/8. The “Incidence (%)” value ([3]; 15.0 mg/pellet (high)) was 25%, the Onset ([3]; 15.0 mg/pellet (high)) was 29 ± 1.4 days and the “Peak (disease score)” value ([3]; 15.0 mg/pellet (high)) was 2.0 ± 1.0. The “inhibition of EAE” value ([3]; 2.5 mg pellets) was “essentially complete inhibition of EAE”, the “inhibition of EAE” value ([3]; 15 mg pellets) was “essentially complete inhibition of EAE” and the “inhibition of EAE” value ([3]; estrus (0.36 mg pellets) to diestrus levels (0.10 mg pellets)) was “substantial inhibition”. For the same compound, the CDI ([4]; IL-10 KO) was 6.5 ± 10.9, the Incidence ([4]; IL-10 KO) was 6/17 and the Mortality ([4]; IL-10 KO) was 0/17. The Onset ([4]; IL-10 KO) was 22.0 ± 4.3, the “Peak Score” value ([4]; IL-10 KO) was 4.2 ± 0.8 and the “Inflammatory foci/section” value ([4]; IL-10KO, spinal cord) was 0.0 ± 0.0 Foci/Section. The “levels of LT-β, TNF-α and IFN-γ mRNA in spinal cords” value ([5]; C57BL/6 and cytokine knockout mice, except LT-β in IFN-γ deficient mice) was “significantly reduced”, the “expression of all chemokine and chemokine receptor mRNA in spinal cord” value ([5]; WT and cytokine deficient mice, 2.5 mg pellet) was “significantly diminished or absent” and the “inhibition of proliferation of MBP-Ac1-11 specific T cells” value [6] was “about 47%”. The “serum concentration from 60-day release pellet” value (from here on “serum concentration”) ([7]; 0.025 mg pellet) was 5 to 10 pg/mL, the “serum concentration” value ([7]; 0.1 mg pellet) was 25 to 50 pg/mL and the “serum concentration” value ([7]; 0.36 mg pellet) was 150 to 200 pg/mL. For the same compound, the “serum concentration” value ([7]; 1.5 mg pellet) was 800-1,000 pg/ml, the “serum concentration” value ([7]; 2.5 mg pellet) was 1,500-2,000 pg/ml and the “serum concentration” value ([7]; 5 mg pellet) was 3,000-4,000 pg/ml. For the same compound, the “serum concentration” value ([7]; 15 mg pellet) was 9,000-10,000 pg/ml.
